Source: patent publication US10183008B2, “Treatment of prolonged status epilepticus” (University of South Carolina, priority 2011, dated 2019)

Assays:
[1] = test system: tonic inhibition (GABAergic tonic current); experiment: Brain slice whole-cell electrophysiology: tonic current in dentate granule cells; format: cell-based, rat; conditions: for effect on tonic inhibition: 1 μM DZP, 100 μM STP
[2] = test system: lithium-pilocarpine model of S.E.; experiment: Lithium-pilocarpine model of status epilepticus, behavioral seizure scoring (Racine scale); format: in vivo, rat; conditions: for termination of brief behavioral convulsions: postnatal 20-25 day male rats, drug i.p. at onset of first stage 3 convulsion, score 15 min after
Procedure: The ED50 was determined based on the fit of the sigmoidal dose-response curve.
Experiments were performed on male rats age 5-65 days. SE was induced using lithium pilocarpine. Brief SE was defined as the onset of stage 3 seizures. Prolonged SE was defined as 45 minutes of SE following the first stage 3 seizure.
Status epilepticus was induced in male Sprague Dawley rats (5-65 days old; Harlan Sprague Dawley, Indianapolis, Ind.) by intraperitoneal injection of lithium chloride (LiCl) at 127 mg/kg followed 15-20 hr later by scopolamine methylbromide (2 mg/kg) and then pilocarpine at 60 mg/kg. After pilocarpine injection, the rats were observed continuously for occurrence of behavioral seizures. Seizures were scored according to the Racine scale with slight modifications: 0-normal behavior; 1-immobile, staring, curled-up posture; 2-automatisms: repetitive blinking, chewing, headbobbing, vibrissae twitching, scratching, face-washing; 3-forelimb/hindlimb myoclonic jerking, head tremor; 4-rearing, whole body clonus; 5-loss of posture, rearing and falling. EEG recordings, have established that the cortical electrographic onset of SE corresponds to the onset of forelimb clonus, or stage 3 seizures. Therefore, diazepam or stiripentol was administered either at the onset of S3 seizures (brief SE) or 45 min after S3 seizure onset (prolonged SE). The seizure scores were taken continuously, but specifically 15 mins after the first S3 seizure, and 15 mins after treatment. The scores represented in the data were recorded 15 minutes following treatment. Solutions of lithium, scopolamine, pilocarpine and stiripentol were made fresh on the day of the experiments. Lithium, scopolamine and pilocarpine were dissolved in 0.9% saline. Stiripentol was dissolved in 20% propylene glycol and 80% ethanol. Diazepam was purchased commercially in a solution of 10% propylene glycol and 80% ethanol. All drugs were administered via intraperitoneal (i.p) injection.

[3] = test system: GABAAR subunit combinations; conditions: STP 100 μM, GABA 0.3 μM, n=5-9, HEK-293T; cited from earlier work
prolonged SE = conditions: 45 minutes after onset; cited from earlier work

Structure (SMILES) | effect on tonic inhibition [1] | anticonvulsant effect in 60-65 compared to 20-25 day old rats ([2]; age comparison) | termination of brief behavioral convulsions [2] | effect on GABA current [3] | potentiation of tonic current during prolonged SE ([1]; prolonged SE, DZP 1 μM, STP 100 μM, n=3-4) | pharmacoresistance following prolonged SE (shift of ED50 for seizure termination) ([2]; prolonged SE (45 min after stage 3 onset) vs brief SE) | fold decrease in efficacy at terminating prolonged SE (prolonged SE)
CC(C)(C)C(O)/C=C/c1ccc2c(c1)OCO2 (stereo not drawn) [STP, 1-(3,4-methylenedioxyphenyl)-4,4-dimethylpent-1-en-3-ol] | increase tonic inhibition | reduced | terminate brief behavioral convulsions | increases GABA (0.3 μM) current at all tested GABAAR subunit combinations |  |  | 
CN1C(=O)CN=C(c2ccccc2)c2cc(Cl)ccc21 [DZP, diazepam] | increase tonic inhibition |  | terminate brief behavioral convulsions |  | less effective at potentiating tonic current | develops pharmacoresistance | 9-10 fold
